Experimental data as given in patent publication US20030114445A1, “N3-substituted 6-anilinopyrimidines and methods to treat-Gram-positive bacterial and mycoplasmal infections” (priority 2001, published 2003).
pKi: −log10 of the molar value. In brackets after ≈: the same amount, converted by molar mass. Like-named read-outs stand apart in the source and are kept apart here.

Assays:
B.subtilis pol IIIC = B.subtilis pol IIIC (Bacillus subtilis, UniProt P13267); assay: biochemical
Protocol: DNA pol activity was assayed as described in Barnes et al., Nuc. Acids Res., 6:1203-19 (1979), using activated “nicked” calf-thymus DNA as template primer, 10 pM [^3H-methyl]-dTTP as the labelled dNTP substrate, and dATP, dCTP, and dGTP at 25 μM each.
Inhibitory activity of the compounds is determined by measuring the ability of the agent to inhibit enzyme-catalyzed incorporation of [^3H]-dTMP into nicked calf thymus DNA in the absence of the competitor dGTP or dATP (“truncated assay”) (see G. E. Wright and N. C. Brown, Inhibition of Bacillus subtilis DNA Polymerase III by Arylhydrazinopyrimidines: Novel Properties of 2-Thiouracil Derivatives, Biochim. Biophys. Acta 432:37-48 (1976)). Purified pol IIIC is added to a buffered solution containing Mg^2+, DTT, glycerol, nicked calf thymus DNA, saturating concentrations of dATP, dCTP, dTTP and [^3H]-dTTP. Reaction mixtures are incubated at 30° C. for 10 minutes, quenched and filtered, and radioactivity in the acid-insoluble material measured by scintillation counting. Experiments are done in triplicate. Inhibitors are assayed by addition of several dilutions of a stock solution of inhibitor (DMSO or water, depending on solubility) before enzyme addition. […] The truncated assay, i.e. exclusion of the competitive substrate dGTP or dATP, depending upon whether the compound is a uracil derivative or an isocytosine derivative, respectively, allows for the direct determination of apparent inhibitor constants (K,) in this assay system.

B. subtilis = assay: Inhibition of bacterial growth on agar plates (MIC); assay type: cell-based; details: Bacillus subtilis, 37° C., 24 hours
Protocol: (§1) Each compound is assayed against a panel of Bacillus, Enterococcus and Staphylococcus, and a Gram-negative bacterium Escherichia coli as negative control, grown in appropriate plate media solidified with 1.3% agar-agar. Stock solutions of the compounds in dimethylsulfoxide or water, depending on solubility, are added to sterile medium at a temperature of 60° C. […] One tenth mL of diluted bacteria containing 500-1000 colony-forming units (CFU) are plated and spread, and the plates incubated at 37° C. for 24 hours. MIC (minimum inhibitory concentration) is equivalent to the lowest concentration at which growth, i.e. colony formation, is not observed.

E. fecalis = assay: as above; assay type: cell-based; details: 37° C., 24 hours
Protocol: as §1

E. fecium = assay: as above; assay type: cell-based; details: 37° C., 24 hours
Protocol: as §1

S.aureus (Smith) = assay: as above; assay type: cell-based; details: Staphylococcus aureus, 37° C., 24 hours
Protocol: as §1

[1] = truncated assay, apparent inhibitor constant, read-out: K1 B.subtilis pol IIIC

B.subtilis pol IIIC, sequence (P13267 whole entry): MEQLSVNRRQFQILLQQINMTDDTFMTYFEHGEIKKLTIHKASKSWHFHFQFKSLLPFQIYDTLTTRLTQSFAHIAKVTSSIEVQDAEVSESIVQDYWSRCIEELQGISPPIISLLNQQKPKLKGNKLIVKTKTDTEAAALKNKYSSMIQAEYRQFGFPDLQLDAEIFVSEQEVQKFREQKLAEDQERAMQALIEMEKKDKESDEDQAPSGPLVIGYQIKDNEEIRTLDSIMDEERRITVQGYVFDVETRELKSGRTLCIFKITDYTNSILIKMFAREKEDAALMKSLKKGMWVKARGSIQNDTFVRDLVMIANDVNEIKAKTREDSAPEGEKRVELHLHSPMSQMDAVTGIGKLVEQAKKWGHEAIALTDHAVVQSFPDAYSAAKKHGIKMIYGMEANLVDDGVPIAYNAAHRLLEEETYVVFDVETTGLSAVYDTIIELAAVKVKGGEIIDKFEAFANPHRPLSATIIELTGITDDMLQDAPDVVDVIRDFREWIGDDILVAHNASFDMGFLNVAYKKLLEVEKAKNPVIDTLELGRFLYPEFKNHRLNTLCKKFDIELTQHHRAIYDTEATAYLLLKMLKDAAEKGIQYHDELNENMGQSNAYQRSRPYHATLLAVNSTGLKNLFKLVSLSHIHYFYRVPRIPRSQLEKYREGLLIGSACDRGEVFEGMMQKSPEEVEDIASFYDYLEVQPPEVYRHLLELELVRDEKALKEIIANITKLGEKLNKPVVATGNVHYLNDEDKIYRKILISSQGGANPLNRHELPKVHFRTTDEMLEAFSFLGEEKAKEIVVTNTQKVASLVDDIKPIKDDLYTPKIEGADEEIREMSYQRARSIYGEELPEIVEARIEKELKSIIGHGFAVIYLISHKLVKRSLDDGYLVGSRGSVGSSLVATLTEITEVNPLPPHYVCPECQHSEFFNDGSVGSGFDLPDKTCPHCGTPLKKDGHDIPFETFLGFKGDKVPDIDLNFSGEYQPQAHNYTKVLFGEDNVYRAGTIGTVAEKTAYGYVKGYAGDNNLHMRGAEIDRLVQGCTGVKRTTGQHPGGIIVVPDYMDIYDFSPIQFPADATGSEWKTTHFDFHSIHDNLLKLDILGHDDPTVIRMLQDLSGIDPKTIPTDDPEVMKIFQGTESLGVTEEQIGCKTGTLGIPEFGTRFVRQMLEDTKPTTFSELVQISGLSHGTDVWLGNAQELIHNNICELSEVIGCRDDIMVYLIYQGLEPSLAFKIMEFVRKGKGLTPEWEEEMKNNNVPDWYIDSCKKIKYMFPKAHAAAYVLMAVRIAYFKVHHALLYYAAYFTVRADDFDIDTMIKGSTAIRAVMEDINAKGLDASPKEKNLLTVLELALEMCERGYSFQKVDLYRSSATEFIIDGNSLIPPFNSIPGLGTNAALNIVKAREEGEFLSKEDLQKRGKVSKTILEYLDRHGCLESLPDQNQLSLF

Compound	pKi (B.subtilis pol IIIC)	MIC (B. subtilis) [µg/mL]	MIC (E. fecalis) [µg/mL]	MIC (E. fecium) [µg/mL]	MIC (S.aureus (Smith)) [µg/mL]	pKi (B.subtilis pol IIIC; [1])
CCc1cc(Nc2cc(=O)n(CCCC(=O)O)c(=O)[nH]2)ccc1C [Compound 31, 3-(3-Carboxypropyl)-6-(3-ethyl-4-methylanilino)uracil]	7.24	> 20	> 20	20 (≈ 60.4 µM)	10 (≈ 30.2 µM)	–
CCc1cc(Nc2cc(=O)n(CCCCOC(=O)N3CCOCC3)c(=O)[nH]2)ccc1C [Compound 47, 3-[4-(N-morpholinocarbonyloxy)butyl]-6-(3-ethyl-4-methylanilino)uracil]	7.15	< 1.25	5 (≈ 11.6 µM)	5 (≈ 11.6 µM)	5 (≈ 11.6 µM)	–
CCc1cc(Nc2cc(=O)n(CCCCC#N)c(=O)[nH]2)ccc1C [Compound 20, 3-(4-Cyanobutyl)-6-(3-ethyl-4-methylanilino)uracil]	7.03	2.5 (≈ 7.66 µM)	2.5 (≈ 7.66 µM)	5 (≈ 15.3 µM)	2.5 (≈ 7.66 µM)	–
CCc1cc(Nc2cc(=O)n(CCOCCOC)c(=O)[nH]2)ccc1C [Compound 12, 3-[2-(2-Methoxyethoxy)ethyl]-6-(3-ethyl-4-methylanilino)uracil]	7.35	2.5 (≈ 7.2 µM)	5 (≈ 14.4 µM)	5 (≈ 14.4 µM)	2.5 (≈ 7.2 µM)	–
CCc1cc(Nc2cc(=O)n(CCCCN3CCN(c4ncc(C(=O)OC)c(C(F)(F)F)n4)CC3)c(=O)[nH]2)ccc1C [Compound 62, 3-{4-[4-(4-trifluoromethyl-5-methoxycarbonyl-2-pyrimidinyl)-1-piperazinyl]butyl}-6-(3-ethyl-4-methylanilino)uracil]	6.26	80 (≈ 136 µM)	80 (≈ 136 µM)	80 (≈ 136 µM)	80 (≈ 136 µM)	–
CCOC(=O)C1CN(CCCCCn2c(=O)cc(Nc3ccc(C)c(CC)c3)[nH]c2=O)CCC1=O (stereo not drawn) [Compound 78, 3-{5-(3-ethoxycarbonyl-4-oxopiperidinyl)pentyl}-6-(3-ethyl-4-methylanilino)uracil]	6.60	80 (≈ 165 µM)	80 (≈ 165 µM)	80 (≈ 165 µM)	80 (≈ 165 µM)	–
CCc1cc(Nc2cc(=O)n(CCCCCNC(=O)c3cc4ccccc4s3)c(=O)[nH]2)ccc1C [Compound 77, 3-[5-(2-benzo[b]thiophenecarboxamido)pentyl]-6-(3-ethyl-4-methylanilino)uracil]	6.32	80 (≈ 163 µM)	80 (≈ 163 µM)	80 (≈ 163 µM)	80 (≈ 163 µM)	–
CCc1cc(Nc2cc(=O)n(CCCCN3CCN(c4ccc(F)cc4)CC3)c(=O)[nH]2)ccc1C [Compound 46, 3-{4-[(4-fluorophenyl)piperazinyl]butyl}-6-(3-ethyl-4-methyylanilino)uracil]	–	5 (≈ 10.4 µM)	10 (≈ 20.9 µM)	5 (≈ 10.4 µM)	20 (≈ 41.7 µM)	7.15
CCc1cc(Nc2cc(=O)n(CCCCCCCCO)c(=O)[nH]2)ccc1C [Compound 18, 3-(8-Hydroxyoctyl)-6-(3-ethyl-4-methylanilino)uracil]	7.59	1.25 (≈ 3.35 µM)	2.5 (≈ 6.69 µM)	2.5 (≈ 6.69 µM)	2.5 (≈ 6.69 µM)	–
CCc1cc(Nc2cc(=O)n(CCCN3CCOCC3)c(=O)[nH]2)ccc1C [Compound 24, 3-[3-(N-Morpholino)propyl]-6-(3-ethyl-4-methylanilino)uracil]	6.96	2.5 (≈ 6.71 µM)	10 (≈ 26.8 µM)	5 (≈ 13.4 µM)	10 (≈ 26.8 µM)	–
CCc1cc(Nc2cc(=O)n(CCCCN3CCSCC3)c(=O)[nH]2)ccc1C [Compound 36, 3-[(N-Thiomorpholino)butyl]-6-(3-ethyl-4-methylanilino)uracil]	–	5 (≈ 12.4 µM)	5 (≈ 12.4 µM)	5 (≈ 12.4 µM)	10 (≈ 24.8 µM)	7.17
CCc1cc(Nc2cc(=O)n(CCCCN3CCN(Cc4ccccc4)CC3)c(=O)[nH]2)ccc1C [Compound 41, 3-[4-(4-Benzylpiperazino)butyl]-6-(3-ethyl-4-methylanilino)uracil]	7.47	5 (≈ 10.5 µM)	10 (≈ 21 µM)	5 (≈ 10.5 µM)	> 20	–
